Measured values reported in PubChem BioAssay (NCI).
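These data come from cells grown in 96-well plates and exposed to compound for 48 hours at five concentrations. GI50 marks 50% less growth. TGI marks complete inhibition of growth.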

How the values were obtained:
Assay in all cases: NCI-60 cell line screen, 48 h
OVCAR-4 ovarian = test system: OVCAR-4 ovarian
ACHN renal = test system: ACHN renal
CAKI-1 renal = test system: CAKI-1 renal
MOLT-4 leukemia = test system: MOLT-4 leukemia
IGROV1 ovarian = test system: IGROV1 ovarian
NCI-H226 lung = test system: NCI-H226 lung
OVCAR-5 ovarian = test system: OVCAR-5 ovarian
SR leukemia = test system: SR leukemia
OVCAR-3 ovarian = test system: OVCAR-3 ovarian
A498 renal = test system: A498 renal

Row | SMILES | GI50 (OVCAR-4 ovarian) [µM] | TGI (OVCAR-4 ovarian) [µM] | GI50 (ACHN renal) [µM] | TGI (ACHN renal) [µM] | GI50 (CAKI-1 renal) [µM] | TGI (CAKI-1 renal) [µM] | GI50 (MOLT-4 leukemia) [µM] | TGI (MOLT-4 leukemia) [µM] | GI50 (IGROV1 ovarian) [µM] | TGI (IGROV1 ovarian) [µM] | GI50 (NCI-H226 lung) [µM] | TGI (NCI-H226 lung) [µM] | GI50 (OVCAR-5 ovarian) [µM] | TGI (OVCAR-5 ovarian) [µM] | GI50 (SR leukemia) [µM] | TGI (SR leukemia) [µM] | GI50 (OVCAR-3 ovarian) [µM] | TGI (OVCAR-3 ovarian) [µM] | GI50 (A498 renal) [µM] | TGI (A498 renal) [µM]
1 | O=C(Nc1ccc(I)cc1)c1cc([N+](=O)[O-])ccc1O | 4.57 | 90.8 | 9.28 | > 100 | 5.39 | > 100 | 4.67 | 51.3 | 13.8 | > 100 | 6.19 | 80.4 | 27.9 | > 100 | 6.09 | 46.5 | 3.74 | 32.1 | 1.45 | 5.17
2 | COC(=O)Nc1nc2ccc(S(=O)c3ccccc3)cc2[nH]1 (stereo not given) | 7.73 | > 100 | 7.59 | > 100 | 4.99 | > 100 | 5.86 | > 100 | 7.51 | > 100 | 4.06 | > 100 | 9.12 | > 100 | 2.25 | > 100 | 7.39 | > 100 | 15.5 | > 100
3 | O=C1C2=C(SCCS2)C(=O)c2ccccc21 | – | 3.01 | – | 3.05 | – | 3.32 | – | 27.7 | – | 3.17 | – | 3.57 | – | 3.23 | – | 5.33 | – | 3.08 | – | 3.65
4 | CCOc1ccccc1-n1c(CN2CCN(C(=O)COc3ccc(CNCCCCCCN4C5CCCC4CC(OC(=O)Nc4cc(C)ccc4OC)C5)cc3)CC2)nc2ccccc2c1=O (stereo not given) | 1.75 | 3.34 | 2.4 | 5.9 | 1.63 | 3.06 | 0.68 | 1.5 | 1.72 | 3.47 | 1.88 | 3.91 | 1.9 | 3.45 | 0.656 | 1.59 | 1.78 | 3.49 | 2.11 | 4.64
5 | CC(=O)C(CN(C(C)C)C(C)C)C(c1ccccc1)c1c(O)c2ccccc2oc1=O (stereo not given) | – | > 100 | – | > 100 | – | > 100 | – | > 100 | – | > 100 | – | > 100 | – | > 100 | – | > 100 | – | > 100 | – | > 100
6 | NC(CSC(c1ccccc1)(c1ccccc1)c1ccc2c(c1)OCO2)C(=O)O (stereo not given) | 7.81 | > 81.6 | 4.06 | > 100 | 5.14 | > 100 | 0.631 | 17 | 2.5 | > 100 | 15.9 | > 84.8 | 7.22 | > 100 | 0.285 | 0.868 | 0.512 | 16.4 | 0.518 | 30.5
7 | CCCCCCCCSC1=CC(=O)c2nc3ccccc3c3ccnc1c23 | 19.1 | > 100 | 52.2 | > 100 | 59.8 | > 100 | 6.03 | > 100 | > 100 | > 100 | 0.544 | 96.8 | > 100 | > 100 | 22.7 | > 100 | 19 | > 100 | > 100 | > 100
8 | COc1ccc(-c2cc(-c3ccc(Nc4nc(Nc5ccccc5)nc(Nc5ccc(Cl)cc5)n4)cc3)nc(N)c2C#N)cc1 | 1.06 | 3.2 | 0.885 | 1.77 | 0.705 | 1.49 | 0.958 | > 50 | 0.546 | 1.41 | 1.08 | 2.73 | 1.13 | 2.86 | 0.582 | 2.94 | 0.761 | 1.52 | 2.49 | 11.1
9 | COc1ccc(-n2/c(=N/C(=S)N(C)C)ss/c2=N\C(=S)N(C)C)cc1 | – | 18.5 | – | > 100 | – | > 100 | – | > 100 | – | > 100 | – | > 100 | – | > 100 | – | > 100 | – | 53.1 | – | > 100
10 | COc1cc2nc(-c3ccc(C(F)(F)F)cc3)cc(OCCCN3CCC(O)CC3)c2cc1OC | 9.14 | 22 | 3.18 | 16.7 | 0.376 | 13.1 | 3.27 | 18.4 | 0.9 | 18.2 | 1.59 | 5.37 | 3.14 | 20.7 | 0.274 | 16.6 | 6.1 | 22.2 | 2.37 | 10.3
